Values after ≈ are worked out from the molar mass of the structure shown.
Key:
Assay in all cases: ≥ marks a high value that may be exact or a test limit, other limits are often not marked, values filed in µg/mL are converted to µM
Candida albicans 3153A = test system: Candida albicans 3153A
[1] = test system: Staphylococcus aureus 1056
Escherichia coli O157:H7 = test system: Escherichia coli O157:H7
Escherichia coli = test system: Escherichia coli
Micrococcus luteus = test system: Micrococcus luteus
Pseudomonas haemolytica = test system: Pseudomonas haemolytica
[2] = test system: Pediococcus pentosaceus NCDO 990
[3] = test system: Lacticaseibacillus casei subsp. casei NCDO 161
[4] = test system: Weissella viridescens NCDO 1655
[5] = test system: Carnobacterium maltaromaticum UI49
[6] = test system: Latilactobacillus sakei 706
[7] = test system: Latilactobacillus curvatus 89
[8] = test system: Pediococcus acidilactici CH
[9] = test system: Latilactobacillus sakei NCDO 2714
[10] = test system: Pediococcus pentosaceus Pac1.0
[11] = test system: Lacticaseibacillus casei NCDO 2713
[12] = test system: Lactiplantibacillus plantarum UI50

`CC[C@H](C)[C@H](NC(=O)[C@H](CC(N)=O)NC(=O)[C@H](CCCCN)NC(=O)[C@@H]1CSSC[C@@H]2NC(=O)[C@H](CCCCN)NC(=O)[C@H](CC(C)C)NC(=O)[C@H](Cc3ccccc3)NC(=O)CNC(=O)[C@@H]3CSSC[C@H](NC(=O)[C@H](CCCCN)NC(=O)CNC(=O)[C@H](CO)NC(=O)[C@H](C(C)C)NC(=O)[C@H](C(C)C)NC(=O)[C@H](Cc4ccccc4)NC(=O)[C@@H]4CCCN4C(=O)[C@H](Cc4ccccc4)NC(=O)[C@H](CO)NC2=O)C(=O)N[C@@H](CO)C(=O)N[C@@H](CCCN=C(N)N)C(=O)N[C@@H](Cc2ccccc2)C(=O)N[C@@H](Cc2ccccc2)C(=O)N[C@@H](Cc2ccccc2)C(=O)N[C@@H](CSSC[C@H](NC(=O)[C@H](CCC(=O)O)NC(=O)[C@H](C)NC(=O)[C@H](CCCCN)NC(=O)[C@H](CC(N)=O)NC(=O)CNC(=O)[C@@H]2CCCN2C(=O)[C@H](C)N)C(=O)N[C@@H](CCC(=O)O)C(=O)N[C@@H](CCCN=C(N)N)C(=O)N[C@@H](CCC(=O)O)C(=O)N[C@@H](CCCCN)C(=O)NCC(=O)N[C@@H](Cc2ccc(O)cc2)C(=O)N3)C(=O)N1)C(=O)N[C@@H](Cc1c[nH]c2ccccc12)C(=O)O` [APGNKAECEREKGYCGFLKCSFPFVVSGKCSRFFFCCKNIW] gave an MIC (Candida albicans 3153A) of 1.32 µM (≈ 6.19 µg/mL), an MIC [1] of 0.267 µM (≈ 1.25 µg/mL) and an MIC (Escherichia coli O157:H7) of 0.205 µM (≈ 0.959 µg/mL).
With `CC[C@H](C)[C@H](NC(=O)CNC(=O)[C@H](CO)NC(=O)[C@H](C)NC(=O)[C@H](CC(C)C)NC(=O)[C@H](CC(=O)O)NC(=O)CNC(=O)[C@H](C)NC(=O)[C@H](C)NC(=O)[C@H](CO)NC(=O)[C@H](CCCCN)NC(=O)[C@@H](NC(=O)[C@H](CCCCN)NC(=O)[C@H](CCC(N)=O)NC(=O)[C@H](Cc1c[nH]c2ccccc12)NC(=O)[C@H](CC(C)C)NC(=O)CN)[C@@H](C)CC)C(=O)N[C@H](C(=O)N[C@@H](CCC(=O)O)C(=O)N[C@@H](C)C(=O)N[C@H](C(=O)N[C@@H](CCCCN)C(=O)N[C@@H](CO)C(N)=O)[C@@H](C)CC)C(C)C` [GLWQKIKSAAGDLASGIVEAIKS] the MIC (Escherichia coli) was 21.3 µM (≈ 50 µg/mL), the MIC (Micrococcus luteus) was 2.56 µM (≈ 6 µg/mL) and the MIC (Pseudomonas haemolytica) was 0.171 µM (≈ 0.4 µg/mL).
`CC[C@H](C)[C@H](NC(=O)[C@H](C)NC(=O)[C@H](CCCNC(=N)N)NC(=O)CNC(=O)[C@H](C)NC(=O)[C@H](CCC(=O)O)NC(=O)CNC(=O)[C@H](CC(=O)O)NC(=O)[C@H](Cc1ccc(O)cc1)NC(=O)[C@H](Cc1ccccc1)NC(=O)CNC(=O)[C@H](CCCCN)NC(=O)[C@H](CCCNC(=N)N)NC(=O)[C@H](CC(C)C)NC(=O)[C@H](CO)NC(=O)[C@H](CO)NC(=O)[C@H](Cc1c[nH]c2ccccc12)NC(=O)[C@H](Cc1ccccc1)NC(=O)[C@H](CC(N)=O)NC(=O)[C@H](CCCCN)NC(=O)[C@H](Cc1c[nH]c2ccccc12)NC(=O)[C@H](C)NC(=O)CN)C(=O)N[C@@H](CCCNC(=N)N)C(=O)N[C@@H](CCCNC(=N)N)C(=O)O` [GAWKNFWSSLRKGFYDGEAGRAIRR] gave an MIC [2] of 0.4 µM (≈ 1.17 µg/mL), an MIC [3] of 0.4 µM (≈ 1.17 µg/mL) and an MIC [4] of 0.005 µM (≈ 0.0146 µg/mL). The MIC [5] was 0.4 µM (≈ 1.17 µg/mL), the MIC [6] was 0.4 µM (≈ 1.17 µg/mL) and the MIC [7] was 0.4 µM (≈ 1.17 µg/mL). The MIC [8] was 0.4 µM (≈ 1.17 µg/mL), the MIC [9] was 0.05 µM (≈ 0.146 µg/mL) and the MIC [10] was 0.05 µM (≈ 0.146 µg/mL). For the same compound, the MIC [11] was 0.4 µM (≈ 1.17 µg/mL) and the MIC [12] was 0.4 µM (≈ 1.17 µg/mL).

From DBAASP
